Each compound was assayed against T1, human kinase Mps-1 (Homo sapiens (Human), UniProt P33981) (assay: not given). Conditions: read-out: Mps-1 IC50; N-terminally GST-tagged human full length recombinant Mps-1; 10 μM ATP; 1 μM biotinylated peptide substrate; 60 min at 22° C.
T1 sequence (P33981 whole entry): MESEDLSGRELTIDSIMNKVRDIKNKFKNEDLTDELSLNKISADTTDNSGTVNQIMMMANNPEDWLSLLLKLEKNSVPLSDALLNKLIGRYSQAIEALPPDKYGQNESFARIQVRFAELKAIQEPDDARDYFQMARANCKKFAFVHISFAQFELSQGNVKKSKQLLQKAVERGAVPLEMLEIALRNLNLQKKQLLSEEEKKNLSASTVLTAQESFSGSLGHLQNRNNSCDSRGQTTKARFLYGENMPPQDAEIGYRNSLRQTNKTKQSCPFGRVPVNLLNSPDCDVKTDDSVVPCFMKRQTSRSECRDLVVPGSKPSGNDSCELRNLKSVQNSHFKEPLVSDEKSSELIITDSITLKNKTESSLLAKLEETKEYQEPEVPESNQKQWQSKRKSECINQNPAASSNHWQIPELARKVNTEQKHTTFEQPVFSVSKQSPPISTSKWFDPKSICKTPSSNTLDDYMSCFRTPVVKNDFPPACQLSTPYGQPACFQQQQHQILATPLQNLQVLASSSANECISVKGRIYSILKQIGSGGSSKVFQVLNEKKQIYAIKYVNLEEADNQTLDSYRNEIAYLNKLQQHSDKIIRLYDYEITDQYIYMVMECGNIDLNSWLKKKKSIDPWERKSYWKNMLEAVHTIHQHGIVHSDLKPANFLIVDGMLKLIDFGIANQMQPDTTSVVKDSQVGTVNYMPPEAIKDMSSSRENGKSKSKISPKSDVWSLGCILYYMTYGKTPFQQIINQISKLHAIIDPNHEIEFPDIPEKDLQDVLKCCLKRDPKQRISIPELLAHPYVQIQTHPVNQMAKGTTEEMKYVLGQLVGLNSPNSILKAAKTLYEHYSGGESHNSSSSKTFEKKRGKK

Row | SMILES | IC50 [nM]
1 | C#Cc1cn2c(-c3ccc(C(=O)NC4(C)CC4)c(C)c3)cnc2c(NCCC(F)(F)F)n1 [Example 66, 4-{6-ethynyl-8-[(3,3,3-trifluoropropyl)amino]imidazo[1,2-a]pyrazin-3-yl}-2-methyl-N-(1-methylcyclopropyl)benzamide] | 155
2 | C#Cc1cn2c(-c3ccc(C(=O)NC4(C#N)CC4)c(C)c3)cnc2c(NCCC(F)(F)F)n1 [Example 67, N-(1-cyanocyclopropyl)-4-{6-ethynyl-8-[(3,3,3-trifluoropropyl)amino]imidazo[1,2-a]pyrazin-3-yl}-2-methylbenzamide] | 165
3 | C#Cc1cn2c(-c3ccc(C(=O)NC4(OC)CC4)c(C)c3)cnc2c(NCCC(F)(F)F)n1 [Example 68, 4-{6-ethynyl-8-[(3,3,3-trifluoropropyl)amino]imidazo[1,2-a]pyrazin-3-yl}-N-(1-methoxycyclopropyl)-2-methylbenzamide] | 305
4 | CNC(=O)c1ccc(-c2cnc3c(NCCC(F)(F)F)nc(C#CCO)cn23)cc1C [Example 70, 4-{6-(3-Hydroxyprop-1-yn-1-yl)-8-[(3,3,3-trifluoropropyl)amino]imidazo[1,2-a]pyrazin-3-yl}-N,2-dimethylbenzamide] | 69
5 | CCNC(=O)c1ccc(-c2cnc3c(NCCC(F)(F)F)nc(C#CCO)cn23)cc1C [Example 71, N-ethyl-4-{6-(3-hydroxyprop-1-yn-1-yl)-8-[(3,3,3-trifluoropropyl)amino]imidazo[1,2-a]pyrazin-3-yl}-2-methylbenzamide] | 150
6 | Cc1cc(-c2cnc3c(NCCC(F)(F)F)nc(C#CCO)cn23)ccc1C(=O)NCC(F)F [Example 72, N-(2,2-difluoroethyl)-4-{6-(3-hydroxyprop-1-yn-1-yl)-8-[(3,3,3-trifluoropropyl)amino]imidazo[1,2-a]pyrazin-3-yl}-2-methylbenzamide] | 130
7 | Cc1cc(-c2cnc3c(NCCC(F)(F)F)nc(C#CCO)cn23)ccc1C(=O)NC1(C)CC1 [Example 73, 4-{6-(3-hydroxyprop-1-yn-1-yl)-8-[(3,3,3-trifluoropropyl)amino]imidazo[1,2-a]pyrazin-3-yl}-2-methyl-N-(1-methylcyclopropyl)benzamide] | 120
8 | Cc1cc(-c2cnc3c(NCCC(F)(F)F)nc(C#CCO)cn23)ccc1C(=O)NC1(C#N)CC1 [Example 74, N-(1-cyanocyclopropyl)-4-{6-(3-hydroxyprop-1-yn-1-yl)-8-[(3,3,3-trifluoropropyl)amino]imidazo[1,2-a]pyrazin-3-yl}-2-methylbenzamide] | 98
9 | COC1(NC(=O)c2ccc(-c3cnc4c(NCCC(F)(F)F)nc(C#CCO)cn34)cc2C)CC1 [Example 75, 4-{6-(3-hydroxyprop-1-yn-1-yl)-8-[(3,3,3-trifluoropropyl)amino]imidazo[1,2-a]pyrazin-3-yl}-N-(1-methoxycyclopropyl)-2-methylbenzamide] | 310

Each compound was assayed against T1, human kinase Mps-1 (assay: biochemical). Conditions: not given.

Row | SMILES | IC50 [nM]
10 | Cc1cc(-c2cnc3c(NCCC(F)(F)F)nc(C#CCO)cn23)ccc1C(=O)NC1C[C@@H]1F (stereo in doubt) [Example 76, N-[rel(1S,2S)-2-fluorocyclopropyl]-4-{6-(3-hydroxyprop-1-yn-1-yl)-8-[(3,3,3-trifluoropropyl)amino]imidazo[1,2-a]pyrazin-3-yl}-2-methylbenzamide] | 43
11 | NCCCNc1nc(C#CCO)cn2c(-c3ccc(-c4cnc(C5CC5)[nH]4)cc3)cnc12 [Example 60, 3-{8-[(3-Aminopropyl)amino]-3-[4-(2-cyclopropyl-1H-imidazol-5-yl)phenyl]imidazo[1,2-a]pyrazin-6-yl}prop-2-yn-1-ol] | 230

From patent US9199999B2, “Substituted imidazopyrazines” (Bayer Intellectual Property GmbH, priority 2010, dated 2015)
